These results are taken from patent EP0297159A1, “[N-Acyl, 1,7-Di-Aline] calcitonins, method for their preparation, pharmaceutical compositions and use” (Armour Pharmaceutical Company, priority 1987, dated 1989).

The subject of this experiment is serum calcium concentration. The following applies: rat, in vivo, sc.

Molecules are shown by their SMILES. Where a SMILES comes first, the peptide text is derived from it. The star is where a group is joined. Propionyl = CCC(=O)*

Experimental: Rats were divided into four groups of seven animals, and each group was assigned at random to a dose of standard or test solution. Low and high doses were chosen from the linear portion of the dose-response curve. For the salmon calcitonin standard, the values were 0.7 and 2.1 mcg. peptide/100 g. body weight (BW). This dose approximates 3 and 9 MU/100 g. BW. Peptides were given by subcutaneous injection (0.2 ml./100 g. BW) and blood was withdrawn 1 hour later for serum calcium determination. Sera are processed and analyzed within two hours of collection.

As for `CCC(=O)N[C@@H](C)C(=O)N[C@@H](CO)C(=O)N[C@@H](CC(N)=O)C(=O)N[C@@H](CC(C)C)C(=O)N[C@@H](CO)C(=O)N[C@H](C(=O)N[C@@H](C)C(=O)N[C@H](C(=O)N[C@@H](CC(C)C)C(=O)NCC(=O)N[C@@H](CCCCN)C(=O)N[C@@H](CC(C)C)C(=O)N[C@@H](CO)C(=O)N[C@@H](CCC(N)=O)C(=O)N[C@@H](CCC(=O)O)C(=O)N[C@@H](CC(C)C)C(=O)N[C@@H](Cc1c[nH]cn1)C(=O)N[C@@H](CCCCN)C(=O)N[C@@H](CC(C)C)C(=O)N[C@@H](CCC(N)=O)C(=O)N[C@H](C(=O)N[C@@H](Cc1ccc(O)cc1)C(=O)N1CCC[C@H]1C(=O)N[C@@H](CCCNC(=N)N)C(=O)N[C@H](C(=O)N[C@@H](CC(N)=O)C(=O)N[C@H](C(=O)NCC(=O)N[C@@H](CO)C(=O)NCC(=O)N[C@H](C(=O)N1CCC[C@H]1C(N)=O)[C@@H](C)O)[C@@H](C)O)[C@@H](C)O)[C@@H](C)O)C(C)C)[C@@H](C)O` [[N^α-Propionyl-Di-Ala^1,7]SCT, [N^α-Propionyl, 1,7-Di-Alanine]salmon calcitonin] (Propionyl-ASNLSTAVLGKLSQELHKLQTYPRTNTGSGTP-NH2), the biological potency turned out to be 5450 IU/mg.
